Measured values as given in patent publication US12679836B2, “4H-pyrrolo[3,2-c]pyridin-4-one compounds” (Bayer Aktiengesellschaft, priority 2019, dated 2026).
pIC50: −log10 of the molar value. Read-outs that look alike come from different tables or passages of the source.

Key:
[1] = biological target: T1, EGFR with insertion of SVD between D770 and N771 (EGFR ins SVD) (Homo sapiens, UniProt P00533, DUP768-770); assay: Exon20-Mutant-EGFR(D770_N771insSVD) kinase assay (TR-FRET); type: biochemical; conditions: 2 mM ATP, several values per example where printed
T1 construct: made in house; host or cells: Sf9 insect cells (baculovirus)

[2] = biological target: Ba/F3-EGFR-insSVD cells (Homo sapiens, UniProt P00533, DUP768-770, cells depend on it); assay: Ba/F3 cell survival assay (Cell Titer-Glo), EGFR-insSVD; type: cell-based; conditions: without IL-3, with 10 ng/mL EGF, 48 h; read-out: BA/F3 (insSVD) IC50
Method: (§1) 293T cells from ATCC were transfected with pBABEpuro expression constructs for WT EGFR or EGFR-insSVD and pCL-Eco packaging vector using Fugene-6 transfection reagent from Promega. Plates were incubated at 37° C. for 48 h. Retrovirus was harvested by filtering the media supernatant through a 0.45 μm filter.
(§2) Ba/F3 cells purchased from DSMZ were grown in RPMI+10% FBS+10 ng/mL IL-3 and infected with filtered retroviral supernatant at a 1:2 dilution. Polybrene was added to a concentration of 8 μg/mL, plates were spun for 90 min, and incubated overnight at 37° C. 2 μg/mL puromycin was added to the infected cells 24 h after infection and cells were continually grown in the presence of puromycin and 10 ng/mL IL-3. Following stably expressing Ba/F3 cell lines were generated: Ba/F3-EGFR-WT, Ba/F3-EGFR-insSVD, (Ba/F3-vector-control).
(§3) For cell survival assays, Ba/F3 cells were grown to a density of 1-2 million cells per mL, spun down and resuspended in media without IL-3, and replated at a concentration 200,000-500,000 cells per mL. The cells ectopically expressing WT EGFR or EGFR-insSVD were plated with 10 ng/mL Millipore Culture grade EGF. The cells ectopically expressing pBABEpuro empty vector were plated with 10 ng/mL IL-3. 2 days later, cells were plated in 50 μL in a 384 well plate at a concentration of 4000 cells per well for cells assayed in the absence of IL-3 and 2000 cells per well for cells assayed in the presence of IL-3. 100 nL of compound was added to each well using a 100 nL pin head, and plates were incubated at 37° C. for 48 h.
(§4) Cell viability was measured by adding 20 μL of Cell Titer-Glo Luminescent Cell Viability Reagent diluted 1:3 in PBS. Plates were sealed with Perkin Elmer Top-Seal, inverted several times to mix, and immediately centrifuged at 1000 rpm for 2 min. Plates were incubated in low light conditions for 8-10 min and luminescence was measured.

[3] = biological target: T2, Bub1 (Homo sapiens, UniProt O43683); assay: Bub1 TR-FRET high ATP kinase assay; type: biochemical; conditions: 2 mM ATP
T2 construct: catalytic domain of human Bub1 (amino acids 704-1085); His6 (N); made in house; host or cells: Hi5 insect cells
From the text: Bub1 High ATP Kinase Assay
Bub1-inhibitory activity of compounds of the present invention at a high ATP concentration was quantified employing the Bub1 TR-FRET high ATP kinase assay as described in the following paragraphs.
N-terminally His6-tagged recombinant catalytic domain of human Bub1 (amino acids 704-1085), expressed in insect cells (Hi5) and purified by Ni-NTA affinity chromatography and subsequent size exclusion chromatography, was used as enzyme. As substrate for the kinase reaction the biotinylated peptide biotin-Ahx-[…]—SEQ ID 7 (C-terminus in amid form) was used which can be purchased e.g. form the company Biosyntan (Berlin, Germany).

[4] = biological target: Ba/F3-EGFR-WT cells (Homo sapiens, UniProt P00533); assay: Ba/F3 cell survival assay (Cell Titer-Glo), WT EGFR; type: cell-based; conditions: without IL-3, with 10 ng/mL EGF, 48 h; read-out: BA/F3 (wild type) IC50
Method: as §1, §2, §3, §4

[5] = Bub1 high ATP (2 mM) IC50 [mol/l]

Ba/F3-EGFR-insSVD cells, sequence (P00533 with tags, fused parts or gaps DUP768-770): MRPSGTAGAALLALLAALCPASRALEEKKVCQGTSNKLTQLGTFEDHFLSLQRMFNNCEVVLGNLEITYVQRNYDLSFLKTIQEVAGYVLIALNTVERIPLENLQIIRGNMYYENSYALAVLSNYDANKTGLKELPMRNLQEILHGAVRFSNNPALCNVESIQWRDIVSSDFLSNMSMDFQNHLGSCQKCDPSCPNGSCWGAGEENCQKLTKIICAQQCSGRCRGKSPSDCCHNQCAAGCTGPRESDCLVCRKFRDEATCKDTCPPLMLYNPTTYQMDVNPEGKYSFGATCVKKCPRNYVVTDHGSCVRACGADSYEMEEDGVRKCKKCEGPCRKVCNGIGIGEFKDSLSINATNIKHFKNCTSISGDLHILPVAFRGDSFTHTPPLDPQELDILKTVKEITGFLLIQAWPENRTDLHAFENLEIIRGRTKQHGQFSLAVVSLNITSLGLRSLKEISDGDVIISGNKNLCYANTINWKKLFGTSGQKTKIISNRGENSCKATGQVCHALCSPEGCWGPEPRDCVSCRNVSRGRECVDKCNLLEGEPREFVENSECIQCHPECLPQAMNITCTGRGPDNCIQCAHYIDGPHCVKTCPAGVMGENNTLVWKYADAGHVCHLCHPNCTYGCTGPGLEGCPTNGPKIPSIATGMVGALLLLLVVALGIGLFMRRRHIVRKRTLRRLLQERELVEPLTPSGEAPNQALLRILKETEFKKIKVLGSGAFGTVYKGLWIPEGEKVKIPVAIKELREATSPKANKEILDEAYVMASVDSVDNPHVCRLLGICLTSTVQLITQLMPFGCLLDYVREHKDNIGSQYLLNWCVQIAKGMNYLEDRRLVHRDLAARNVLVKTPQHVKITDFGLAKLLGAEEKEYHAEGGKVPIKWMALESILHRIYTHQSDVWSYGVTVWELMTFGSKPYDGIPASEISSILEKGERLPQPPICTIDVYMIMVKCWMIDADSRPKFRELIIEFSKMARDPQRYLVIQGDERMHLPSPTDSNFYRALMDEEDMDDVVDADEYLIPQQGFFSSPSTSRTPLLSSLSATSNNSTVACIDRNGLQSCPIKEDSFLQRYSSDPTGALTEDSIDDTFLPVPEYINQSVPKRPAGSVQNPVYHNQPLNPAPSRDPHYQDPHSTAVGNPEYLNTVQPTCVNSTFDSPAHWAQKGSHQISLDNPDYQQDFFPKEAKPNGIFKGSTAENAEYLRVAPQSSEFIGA
T1 sequence (P00533 with tags, fused parts or gaps DUP768-770): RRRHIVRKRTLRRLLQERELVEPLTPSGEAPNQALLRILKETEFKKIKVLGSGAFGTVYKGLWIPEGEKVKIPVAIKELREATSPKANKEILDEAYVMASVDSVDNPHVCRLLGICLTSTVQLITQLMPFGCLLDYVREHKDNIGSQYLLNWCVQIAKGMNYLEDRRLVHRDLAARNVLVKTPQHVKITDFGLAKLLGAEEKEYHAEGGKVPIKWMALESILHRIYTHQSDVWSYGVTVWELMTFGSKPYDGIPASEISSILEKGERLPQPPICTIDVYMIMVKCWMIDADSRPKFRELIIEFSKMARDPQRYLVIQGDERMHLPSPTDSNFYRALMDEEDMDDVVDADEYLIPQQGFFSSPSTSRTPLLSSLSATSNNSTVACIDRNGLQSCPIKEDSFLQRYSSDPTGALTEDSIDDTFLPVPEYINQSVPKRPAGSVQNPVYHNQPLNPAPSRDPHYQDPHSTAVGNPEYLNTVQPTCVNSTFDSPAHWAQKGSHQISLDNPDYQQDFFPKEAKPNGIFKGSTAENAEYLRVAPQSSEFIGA
T2 sequence (O43683 704-1085): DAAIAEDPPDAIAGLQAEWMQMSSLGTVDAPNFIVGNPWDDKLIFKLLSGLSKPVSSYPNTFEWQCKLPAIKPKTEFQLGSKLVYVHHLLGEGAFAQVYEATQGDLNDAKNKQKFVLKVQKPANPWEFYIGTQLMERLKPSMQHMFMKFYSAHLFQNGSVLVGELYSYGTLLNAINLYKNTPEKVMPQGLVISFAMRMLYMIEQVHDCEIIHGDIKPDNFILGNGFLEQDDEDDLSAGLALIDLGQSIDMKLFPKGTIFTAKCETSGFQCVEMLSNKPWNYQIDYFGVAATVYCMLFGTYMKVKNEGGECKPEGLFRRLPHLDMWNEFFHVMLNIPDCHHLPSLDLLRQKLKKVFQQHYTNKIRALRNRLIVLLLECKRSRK
Ba/F3-EGFR-WT cells, sequence (P00533 whole entry, change not shown): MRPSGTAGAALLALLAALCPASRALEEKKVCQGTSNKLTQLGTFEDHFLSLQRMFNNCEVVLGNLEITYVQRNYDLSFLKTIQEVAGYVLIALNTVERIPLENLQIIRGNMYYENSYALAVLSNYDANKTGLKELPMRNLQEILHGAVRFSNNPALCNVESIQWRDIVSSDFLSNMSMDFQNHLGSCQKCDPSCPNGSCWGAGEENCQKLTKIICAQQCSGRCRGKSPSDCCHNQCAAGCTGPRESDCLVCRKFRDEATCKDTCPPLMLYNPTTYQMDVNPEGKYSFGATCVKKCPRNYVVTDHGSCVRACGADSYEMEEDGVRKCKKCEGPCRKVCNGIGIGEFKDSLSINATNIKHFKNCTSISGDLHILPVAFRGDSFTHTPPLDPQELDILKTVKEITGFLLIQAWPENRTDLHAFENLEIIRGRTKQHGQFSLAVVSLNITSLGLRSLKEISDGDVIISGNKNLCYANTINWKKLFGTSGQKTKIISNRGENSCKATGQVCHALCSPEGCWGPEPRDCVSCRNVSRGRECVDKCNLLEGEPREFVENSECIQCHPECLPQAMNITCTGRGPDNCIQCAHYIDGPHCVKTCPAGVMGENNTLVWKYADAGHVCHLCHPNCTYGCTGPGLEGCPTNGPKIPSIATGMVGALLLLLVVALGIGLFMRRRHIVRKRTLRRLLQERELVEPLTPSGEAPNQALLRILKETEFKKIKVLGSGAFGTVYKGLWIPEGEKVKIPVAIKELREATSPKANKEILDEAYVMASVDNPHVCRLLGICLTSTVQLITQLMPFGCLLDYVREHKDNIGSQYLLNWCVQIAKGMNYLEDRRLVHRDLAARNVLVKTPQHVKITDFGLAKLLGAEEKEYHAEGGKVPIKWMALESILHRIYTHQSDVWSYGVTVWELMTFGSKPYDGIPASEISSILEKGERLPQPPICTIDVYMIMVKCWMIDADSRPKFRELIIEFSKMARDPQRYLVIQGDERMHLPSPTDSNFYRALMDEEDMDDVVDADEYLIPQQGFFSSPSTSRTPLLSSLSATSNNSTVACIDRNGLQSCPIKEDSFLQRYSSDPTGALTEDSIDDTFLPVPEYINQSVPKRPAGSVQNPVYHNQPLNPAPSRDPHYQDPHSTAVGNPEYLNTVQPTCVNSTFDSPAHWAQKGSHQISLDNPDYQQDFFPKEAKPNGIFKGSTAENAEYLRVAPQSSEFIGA

| Structure (SMILES) | mutEGFR (D770_N771insSVD) kinase assay IC50 [1] [nM] | pIC50 [3, 5] | pIC50 ([3]; read-out: Bub1 high ATP (2 mM) IC50 [mol/l]) | GI50 [2] [nM] | GI50 [4] [nM] |
| --- | --- | --- | --- | --- | --- |
| COc1c(Cl)cc(F)cc1Nc1c(-c2ccncc2OC[C@@H]2CN(C)CCO2)[nH]c2c1C(=O)NCC2 [Example 27, 3-(3-chloro-5-fluoro-2-methoxyanilino)-2-(3-{[(2S)-4-methylmorpholin-2-yl]methoxy}pyridin-4-yl)-1,5,6,7-tetrahydro-4H-pyrrolo[3,2-c]pyridin-4-one] | 0.118 | < 4.70 |  | 16.9 | 502 |
| CCc1c(F)cccc1Nc1c(-c2ccncc2OCC2COCCO2)[nH]c2c1C(=O)NCC2 (single isomer, unassigned) [Example 67, 2-(3-{[1,4-dioxan-2-yl]methoxy}pyridin-4-yl)-3-(2-ethyl-3-fluoroanilino)-1,5,6,7-tetrahydro-4H-pyrrolo[3,2-c]pyridin-4-one] | 0.217 | 5.68 |  | 29 | 198 |
| COc1c(Cl)cccc1Nc1c(-c2ccncc2OC(C)C2CN(C)CCO2)[nH]c2c1C(=O)NCC2 (single isomer, unassigned) [Example 72, 3-(3-chloro-2-methoxyanilino)-2-[3-({1-[4-methylmorpholin-2-yl]ethyl}oxy)pyridin-4-yl]-1,5,6,7-tetrahydro-4H-pyrrolo[3,2-c]pyridin-4-one] | 1.41 | < 4.70 |  | 67.3 | 957 |
| CCc1c(F)cccc1Nc1c(-c2ccncc2OCC2COC(C)(C)CO2)[nH]c2c1C(=O)NCC2 (centres unmarked) [Example 68, 2-(3-{[5,5-dimethyl-1,4-dioxan-2-yl]methoxy}pyridin-4-yl)-3-(2-ethyl-3-fluoroanilino)-1,5,6,7-tetrahydro-4H-pyrrolo[3,2-c]pyridin-4-one] | 0.267 | < 4.70 |  | 37.3 | 644 |
| Cc1c(Cl)cccc1Nc1c(-c2ccncc2OC[C@H]2COCCN2C)[nH]c2c1C(=O)NCC2 [Example 43, 3-(3-chloro-2-methylanilino)-2-(3-{[(3R)-4-methylmorpholin-3-yl]methoxy}pyridin-4-yl)-1,5,6,7-tetrahydro-4H-pyrrolo[3,2-c]pyridin-4-one] | 0.225 | 5.62 |  | 60.5 | 1250 |
| COc1c(Cl)cc(F)cc1Nc1c(-c2ccncc2OC[C@@H]2CN(CC(F)(F)F)CCO2)[nH]c2c1C(=O)NCC2 [Example 28, 3-(3-chloro-5-fluoro-2-methoxyanilino)-2-(3-{[(2S)-4-(2,2,2-trifluoroethyl)morpholin-2-yl]methoxy}pyridin-4-yl)-1,5,6,7-tetrahydro-4H-pyrrolo[3,2-c]pyridin-4-one] | 0.249 | < 4.70 |  | 126 | 1240 |
| COc1c(Cl)cccc1Nc1c(-c2ccncc2OC(C)C2CN(C)CCO2)[nH]c2c1C(=O)NCC2 (single isomer, unassigned) [Example 75, 3-(3-chloro-2-methoxyanilino)-2-[3-({1-[-4-methylmorpholin-2-yl]ethyl}oxy)pyridin-4-yl]-1,5,6,7-tetrahydro-4H-pyrrolo[3,2-c]pyridin-4-one] | 4.99 |  | < 4.70 | 571 | 3900 |

Further lines, with some results ahead:

| mutEGFR (D770_N771insSVD) kinase assay IC50 [1] [nM] | pIC50 [3, 5] | pIC50 ([3]; read-out: Bub1 high ATP (2 mM) IC50 [mol/l]) | Structure (SMILES) | GI50 [2] [nM] | GI50 [4] [nM] |
| --- | --- | --- | --- | --- | --- |
| 0.305 | 4.79 |  | COc1c(Cl)cccc1Nc1c(-c2ccncc2O[C@H](C)C2COCCO2)[nH]c2c1C(=O)NCC2 (single isomer, unassigned) [Example 60] | 52.7 | 946 |
| 0.261 | 5.71 |  | COc1c(Cl)cccc1Nc1c(-c2ccncc2OCCC2COCCO2)[nH]c2c1C(=O)NCC2 (centres unmarked) [Example 24, 3-(3-chloro-2-methoxyanilino)-2-{3-[2-(4-dioxan-2-yl)ethoxy]pyridin-4-yl}-1,5,6,7-tetrahydro-4H-pyrrolo[3,2-c]pyridin-4-one] | 34.6 | 444 |
| 0.669 | 5.75 |  | Cc1c(Cl)cccc1Nc1c(-c2ccncc2OCC2COCCO2)[nH]c2c1C(=O)NCC2 (centres unmarked) [Example 10, 3-(3-chloro-2-methylanilino)-2-{3-[(1,4-dioxan-2-yl)methoxy]pyridin-4-yl}-1,5,6,7-tetrahydro-4H-pyrrolo[3,2-c]pyridin-4-one] | 11.1 | 496 |
| 0.151 | < 4.70 |  | COc1c(Cl)cccc1Nc1c(-c2ccncc2OCC2CN(C)CCO2)[nH]c2c1C(=O)NCC2 (centres unmarked) [Example 15, 3-(3-chloro-2-methoxyanilino)-2-{3-[(4-methylmorpholin-2-yl)methoxy]pyridin-4-yl}-1,5,6,7-tetrahydro-4H-pyrrolo[3,2-c]pyridin-4-one] | 15.3 | 426 |
| 0.182 | 5.30 |  | CCc1c(F)cccc1Nc1c(-c2ccncc2OCC2COCCO2)[nH]c2c1C(=O)NCC2 (single isomer, unassigned) [Example 66, 2-(3-{[1,4-dioxan-2-yl]methoxy}pyridin-4-yl)-3-(2-ethyl-3-fluoroanilino)-1,5,6,7-tetrahydro-4H-pyrrolo[3,2-c]pyridin-4-one] | 7.52 | 252 |
| 0.213 | 5.97 |  | COc1c(Cl)cccc1Nc1c(-c2ccncc2OCCC2COCCO2)[nH]c2c1C(=O)NCC2 (single isomer, unassigned) [Example 26, 3-(3-chloro-2-methoxyanilino)-2-{3-[2-(4-dioxan-2-yl)ethoxy]pyridin-4-yl}-1,5,6,7-tetrahydro-4H-pyrrolo[3,2-c]pyridin-4-one] | 89.9 | 839 |
| 0.17 | 5.41 |  | Cc1c(F)cccc1Nc1c(-c2ccncc2OCC2COCCO2)[nH]c2c1C(=O)NCC2 (single isomer, unassigned) [Example 49, 2-[3-(1,4-dioxan-2-ylmethoxy)-4-pyridyl]-3-(3-fluoro-2-methyl-anilino)-1,5,6,7-tetrahydropyrrolo[3,2-c]pyridin-4-one] | 53.6 | 785 |
| 0.0873 | < 4.70 |  | COc1c(F)cccc1Nc1c(-c2ccncc2OCCC2COCCO2)[nH]c2c1C(=O)NCC2 (single isomer, unassigned) [Example 35, 2-(3-{2-[1,4-dioxan-2-yl]ethoxy}pyridin-4-yl)-3-(3-fluoro-2-methoxyanilino)-1,5,6,7-tetrahydro-4H-pyrrolo[3,2-c]pyridin-4-one] | 21.5 | 261 |
| 0.571 | 6.00 |  | CCc1c(Cl)cccc1Nc1c(-c2ccncc2OC[C@H]2COCCO2)[nH]c2c1C(=O)NCC2 (single isomer, unassigned) [Example 54] | 80.9 | 917 |
| 0.136 | 5.45 |  | CCc1c(F)cccc1Nc1c(-c2ccncc2OCC2COCCO2)[nH]c2c1C(=O)NCC2 (centres unmarked) [Example 65, 2-(3-{[1,4-dioxan-2-yl]methoxy}pyridin-4-yl)-3-(2-ethyl-3-fluoroanilino)-1,5,6,7-tetrahydro-4H-pyrrolo[3,2-c]pyridin-4-one] | 13.4 | 287 |
